From article PMC5571359, “Screening the Medicines for Malaria Venture Pathogen Box across Multiple Pathogens Reclassifies Starting Points for Open-Source Drug Discovery” (Antimicrobial Agents and Chemotherapy, 2017)
pEC50, pIC50: −log10 of the molar value. Where two headings read alike, the source gives them in different places.

What was measured:
[1] = system: NF54-pfs16-LUC-GFP stage IV gametocytes; assay: Plasmodium falciparum late stage gametocyte (LSG) image-based assay; format: cell-based; conditions: for pIC50: reference compound set, 11-point dose response, IA = inactive at 20 μM, read-out: IC50 P. falciparum NF54 LSG
[2] = system: T. cruzi intracellular amastigotes; assay: Intracellular anti-Trypanosoma cruzi image-based assay (amastigotes); format: cell-based
3T3 host cells = assay: T. cruzi assay, activity against 3T3 host cells; format: cell-based; conditions: reference compound set; IA = inactive at 16.4 μM
Method: page 4: […] Puromycin, 71 chloroquine, artesunate, DHA, pyronaridine and pyrimethamine were also tested in 72 IC50 format to act as internal reference compounds. 73 74 Intracellular anti-Trypanosoma cruzi Assay Protocol 75 The host cell cytoplasm, in which the parasite resides, is identified by the fluorescent 76 marker, HCS CellMask Green. Parasite and host cell nuclei are detected with the 77 fluorescent DNA intercalator, Hoechst 33342. The Opera® High Content Screening 78 System is used to take images of wells and a spot detection algorithm is used to 79 identify parasites within the cytoplasm. 80 81 Briefly, 1x 10^3 3T3 cells were added to collagen coated 384-well plates and following 82 24 hrs incubation at 37 °C, a multiplicity of infection (MOI) of 5:1 parasite: host cells 83 were added to the plate using a Multidrop liquid handler. Following additional 24 hrs 84 incubation, extracellular parasites were washed from the plates and RPMI with no […] 86 added to all wells. The final volume of media in the primary screening assay, before 87 addition of compound, was modified slightly to 55 µL. One µL of compounds, provided 88 by Compounds Australia, were diluted by the addition of 25 µL of sterile water. This […] 91 donovani). Five microliters of this dilution was added to assay plates. The final […] The final concentrations of compounds in the […] Following 48 hrs incubation in the presence 97 of compounds, wells were fixed, stained and read on the Opera® High Content 98 Screening System to assess compound activity. 99 The Z′-factor, as a measure of assay reproducibility, was determined from a plate […] The positive control used to calculate activity against […] To 103 assess the sensitivity of the T. cruzi assay, activity of the reference compounds 104 benznidazole, NFX, posaconazole and puromycin were determined. […] 108 resazurin as a measure of parasite viability. 109 T. b. brucei trypanosomes were cultured in vitro in HM1-9 medium supplemented with […] Fifty-five µL of logarithmic phase […] 112 incubated for 24 hrs at 37°C /5% CO2. Compounds were subsequently added to the […] Following […] 116 37°C / 5% CO2 followed by 22 hrs at room temperature. […] The percent

[3] = system: T. b. brucei 427 bloodstream trypanosomes; assay: T. b. brucei resazurin viability assay; format: cell-based, Trypanosoma brucei brucei
[4] = system: L. donovani MHOM/IN/80/DD8 intracellular amastigotes; assay: Leishmania donovani intracellular amastigote assay in THP-1 cells; format: cell-based; conditions: reference compound set, IA = inactive at 20 μM
[5] = system: Plasmodium falciparum 3D7 asexual blood stage; conditions: for screening concentrations at which red blood cell (RBC) lysis was witnessed: human
P. falciparum ABS = conditions: cited from earlier work
liver stage = conditions: ref Pbox supporting information; cited from earlier work
HepG2 = conditions: ref PBox supporting information, cited from earlier work; for CC50: read-out: HepG2 PBox CC50 µM
HEK293 cells = assay: HEK293 resazurin cell cytotoxicity assay
[6] = system: T. cruzi C4 β-galactosidase reporter parasite in MRC 5SV2 host cells; conditions: ref Pbox supporting information; read-out: T. cruzi Pbox IC50; cited from earlier work
T. brucei brucei = conditions: ref Pbox supporting information; read-out: T.b. brucei Pbox IC50; cited from earlier work
T. brucei rhodesiense = conditions: ref Pbox supporting information; read-out: T .b. rohdensie Pbox IC50; cited from earlier work
[7] = system: L. donovani axenic amastigotes; design: method as in PBox supporting information; conditions: ref PBox supporting information; cited from earlier work
[8] = system: L. infanium (macrophages); design: method as in Pbox supporting information; conditions: ref Pbox supporting information; cited from earlier work
[9] = system: L. donovani (macrophages); design: method as in Pbox supporting information; conditions: ref Pbox supporting information; cited from earlier work
infected PMM = system: infected PMM; design: method as in Pbox supporting information; conditions: ref Pbox supporting information, read-out: Toxicity on infected PMM Pbox IC50; cited from earlier work
[10] = system: P. falciparum stage V gametocytes; conditions: cited from earlier work; for pIC50: stage V gametocytes, ref PBox supporting information, read-out: PF stage V GAMS PBox IC50
[11] = system: Plasmodium falciparum 3D7 asexual blood stage; assay: microbe, parasite or virus in culture
[12] = reference compound set, IA = inactive at 16.4 μM, read-out: IC50 T. cruzi intracellular amastigotes
[13] = reference compound set, IA = inactive at 20 μM, read-out: IC50 T. brucei brucei trypomastigotes
[14] = read-out: IC50 L. donovani n = 1, first test
[15] = read-out: IC50 L. donovani n = 2, second test
[16] = Homo sapiens, HEK293, read-out: HEK % Inhibition 20uM/IC50 Discovery Biology (IA)
[17] = read-out: IC50 P. falciparum 3D7 ABS, reference compound set, 11-point dose response, IA = inactive at 20 μM
[18] = P. falciparum 3D7, ref PBox supporting information, read-out: Pf 3D7 Pbox IC50
[19] = 3D7, read-out: Antiplasmodial IC50 (ABS), PBox compounds, P. falciparum 3D7

## NCCC[C@](N)(C(=O)O)C(F)F [α-Difluoromethylornithine, reference compound]
[1]
  pIC50: < 4.70
[2]; [12]
  pIC50: < 4.79
3T3 host cells
  pIC50: < 4.79
[3]; [13]
  pIC50: < 4.70
[4]; [14]
  pIC50: < 4.70
[4]; [15]
  pIC50: < 4.70
[5]; read-out: IC50 P. falciparum 3D7 ABS
  pIC50: < 4.70

## C[C@H](C(N)=O)N1CCCC[C@@H]1c1ccc(OCc2cccc(F)c2)cc1 [MMV676270]
[1]
  activity in the Discovery Biology stage IV gametocyte (LSG) assay: no activity
[5]
  activity in the Discovery Biology ABS assay: no activity
P. falciparum ABS; ChEMBL Data, P. falciparum, read-out: TCMDC (ref 93) EX50
  pEC50: 6.00
P. falciparum ABS; read-out: literature ABS activity
  pIC50: 6.00
Liver stage
  pIC50: 5.75
HepG2
  CC50: > 10 µM
HEK293 cells; [16]
  pIC50: < 4.70

## C[C@H]1COc2c(N3CCN(C)CC3)c(F)cc3c(=O)c(C(=O)O)cn1c23 [Levofloxacin (–)-ofloxacin, reference compound]
[1]
  pIC50: < 4.70
[2]; [12]
  pIC50: < 4.79
3T3 host cells
  pIC50: < 4.79
[3]; [13]
  pIC50: < 4.70
[4]; [14]
  pIC50: < 4.70
[4]; [15]
  pIC50: < 4.70
[5]; [17]
  pIC50: < 4.70

## O=C(Nc1c(O)cccc1-c1nc2c(C(=O)O)cccc2o1)c1cc(-c2ccccc2)on1 [MMV676008]
[6]
  pIC50: < 4.49
T. brucei brucei
  pIC50: < 4.49
T. brucei rhodesiense
  pIC50: < 4.49
[7]
  pIC50: 6.24
[8]
  pIC50: < 4.49
[9]
  pIC50: < 4.52
Infected PMM
  pIC50: < 4.52
HepG2
  HepG2 PBox CC20: 5.7 µM

## CCNC(=O)C(C)Nc1nc(-c2cccnc2)nc2sc(C)c(C)c12 (centres unmarked) [MMV1037162]
[5]
  screening concentrations at which red blood cell (RBC) lysis was witnessed: ≥ 2 µM
P. falciparum ABS; [18]
  pIC50: < 5.70
[10]
  pIC50: 6.21
HEK293 cells; [16]
  pIC50: < 4.70

## O=C(Nc1ccccc1-c1nc2c(C(=O)O)cccc2o1)c1ccccc1 [MMV676162]
[6]
  pIC50: < 4.49
T. brucei brucei
  pIC50: < 4.49
T. brucei rhodesiense
  pIC50: < 4.49
[7]
  pIC50: 6.40
[8]
  pIC50: < 4.49
[9]
  pIC50: < 4.52
Infected PMM
  pIC50: < 4.52
HepG2
  HepG2 PBox CC20: >80 µM

## Cc1nc(-c2ccccn2)nc(NCCc2ccc(S(C)(=O)=O)cc2)c1Cl [MMV658993]
[6]
  pIC50: 5.35
T. brucei brucei
  pIC50: < 4.49
T. brucei rhodesiense
  pIC50: < 4.49
[7]
  pIC50: 5.69
[8]
  pIC50: < 4.49
[9]
  pIC50: < 4.52
Infected PMM
  pIC50: 4.52
HepG2
  HepG2 PBox CC20: 27.9 µM

## Cc1ccc(-c2cc(C(=O)Nc3cccnc3)c3cc(Br)ccc3n2)cc1 [MMV016838]
[1]
  activity in the Discovery Biology stage IV gametocyte (LSG) assay: not to be active
[5]
  activity in the Discovery Biology ABS assay: not to be active
P. falciparum ABS; Pf 3D7, ref Pathogen Box supporting information, read-out: Pf 3D7 Pbox IC50
  pIC50: 7.00
[10]; ref Pbox supporting information
  activity against gametocytes (stage V), PBox supporting information: known to be active
Liver stage
  activity against liver stage, PBox supporting information: known to be active

## c1ccc(Oc2ccc(-c3cc(N4CCOCC4)[nH]n3)cc2)cc1 [MMV045105]
[6]
  pIC50: 4.80
T. brucei brucei
  pIC50: 5.46
T. brucei rhodesiense
  pIC50: 5.89
[7]
  pIC50: 5.41
[8]
  pIC50: 4.67
[9]
  pIC50: < 4.52
Infected PMM
  pIC50: < 4.52
HepG2
  HepG2 PBox CC20: 7.5 µM

## COc1ccc(OC)c(NCc2ccc3nc(N)nc(N)c3c2Cl)c1 [MMV675968]
[2]; Trypanosoma cruzi, intracellular amastigotes, read-out: T cruzi Discovery Biology IC50
  pIC50: 5.88
[3]; Trypanosoma brucei, read-out: T b.brucei Discovery Biology IC50
  pIC50: 5.68
[5]; HEK293
  SI HEK (P. falciparum 3D7): 7.4
[5]; HEPG2 (PBox data)
  SI HepG2 (P. falciparum 3D7): 113
HepG2
  HepG2 PBox CC20: 3.4 µM
[11]; [19]
  pIC50: 7.52
[11]; 3D7, read-out: Pf 3D7 Discovery Biology IC50, P. falciparum 3D7 asexual blood stage
  pIC50: 7.48
HEK293 cells; Homo sapiens, HEK293, read-out: HEK % Discovery Biology IC50
  pIC50: 6.66

## CNC(=O)CNc1nc(-c2ccccn2)nc2scc(-c3ccccc3)c12 [MMV1029203]
[5]
  screening concentrations at which red blood cell (RBC) lysis was witnessed: ≥ 2 µM
P. falciparum ABS; [18]
  pIC50: < 5.70
[10]
  pIC50: 6.08
HEK293 cells; [16]
  pIC50: < 4.70

## Cc1cnc(N2CCN[C@@H](Cc3ccccc3)C2)nc1Oc1ccc(-n2ccnc2)cc1 [MMV687765]
[1]; Plasmodium falciparum, NF54, read-out: Pf Stage IV GAMS Discovery Biology IC50 µM, stage IV gametocytes, Discovery Biology
  IC50: 4.28 µM
[5]; read-out: Antiplasmodial IC50 (ABS), PBox compounds, P. falciparum 3D7
  pIC50: 5.70
HepG2; HepG2 cytotoxicity
  CC50: 14.1 µM
[11]; [19]
  pIC50: 5.70
[11]; 3D7, read-out: activity against P. falciparum (novel antiplasmodial actives of the tuberculosis set)
  pIC50: > 5.70

## CCc1ccc(C(NCc2nc(N)nc(N(C)C)n2)C(C)C)cc1 (centres unmarked) [MMV1019989]
[5]
  screening concentrations at which red blood cell (RBC) lysis was witnessed: ≥ 2 µM
P. falciparum ABS; [18]
  pIC50: < 5.70
[10]
  pIC50: 7.12
HEK293 cells; [16]
  pIC50: < 4.70

## CC(=O)OC[C@H]1O[C@@H]([S-])[C@H](OC(C)=O)[C@@H](OC(C)=O)[C@@H]1OC(C)=O.CCP(CC)CC.[Au+] [Auranofin, reference compound]
[1]
  pIC50: 6.26
[2]; [12]
  pIC50: 5.52
3T3 host cells
  pIC50: 5.31
[3]; [13]
  pIC50: 6.62
[4]; [14]
  pIC50: 6.20
[4]; [15]
  pIC50: 5.70
[5]; [17]
  pIC50: 6.15
HEK293 cells; read-out: IC50 mammalian cell cytotoxicity HEK293, reference compound set
  pIC50: 5.66

## N#CCN(CCCCN1CCN(c2ccc(F)cc2)CC1)C(=O)OCc1ccccc1 [MMV675997]
[6]
  pIC50: 5.34
T. brucei brucei
  pIC50: 4.60
T. brucei rhodesiense
  pIC50: 4.79
[7]
  pIC50: < 4.00
[8]
  pIC50: 4.60
[9]
  pIC50: 4.65
Infected PMM
  pIC50: < 4.52
